From ChEMBL document CHEMBL5143671, “Discovery of (R)-(3-fluoropyrrolidin-1-yl)(6-((5-(trifluoromethyl)pyridin-2-yl)oxy)quinolin-2-yl)methanone (ABBV-318) and analogs as small molecule Nav1.7/ Nav1.8 blockers for the treatment of pain” (Bioorg Med Chem, 2022)
Converted amounts (≈) assume the structure as drawn.

What was measured:
[1] = Drug concentration in plasma of monoiodoacetate-induced acute Sprague-Dawley rat model of osteoarthritis at 30 mg/kg, po administered for 5 days and measured after 15 mins; format: ADME, organism-based; conditions: time 5 day
[2] = Ratio of free drug concentration in brain to plasma of rat; format: ADME, cell-free; conditions: brain and plasma
[3] = Inhibition of rat Nav 1.7 by FRET based membrane potential assay
[4] = Drug concentration in rat plasma assessed as free fraction; format: ADME, cell-free
[5] = Drug concentration in rat brain assessed as free fraction; format: ADME, tissue-based
[6] = Half-life in orally dosed dog; format: ADME, organism-based, Canis lupus familiaris; conditions: in vivo, route po
[7] = Volume of distribution at steady state in orally dosed dog; format: ADME, organism-based, Canis lupus familiaris; conditions: in vivo, po
[8] = Clearance in iv dosed dog; format: ADME, organism-based, Canis lupus familiaris; conditions: in vivo
[9] = Oral bioavailability in dog; format: ADME, organism-based, Canis lupus familiaris; conditions: in vivo
[10] = Half-life in orally dosed monkey; format: ADME, organism-based, Macaca mulatta; conditions: rhesus monkey, in vivo; route po
[11] = Volume of distribution at steady state in orally dosed monkey; format: ADME, organism-based, Macaca mulatta; conditions: rhesus monkey, in vivo, po
[12] = Clearance in iv dosed monkey; format: ADME, organism-based, Macaca mulatta; conditions: rhesus monkey, in vivo
[13] = Oral bioavailability in monkey; format: ADME, organism-based, Macaca mulatta; conditions: rhesus monkey, in vivo
[14] = Drug concentration in plasma of monoiodoacetate-induced acute Sprague-Dawley rat model of osteoarthritis at 3 mg/kg, po administered for 5 days and measured after 15 mins; format: ADME, organism-based; conditions: time 5 day
[15] = Drug concentration in plasma of monoiodoacetate-induced acute Sprague-Dawley rat model of osteoarthritis at 10 mg/kg, po administered for 5 days and measured after 15 mins; format: ADME, organism-based; conditions: time 5 day
[16] = Drug concentration in brain of monoiodoacetate-induced acute Sprague-Dawley rat model of osteoarthritis at 3 mg/kg, po administered for 5 days and measured after 15 mins; format: ADME, organism-based; conditions: time 5 day, read-out: Ct
[17] = Drug concentration in brain of monoiodoacetate-induced acute Sprague-Dawley rat model of osteoarthritis at 10 mg/kg, po administered for 5 days and measured after 15 mins; format: ADME, organism-based; conditions: time 5 day, read-out: Ct
[18] = Drug concentration in brain of monoiodoacetate-induced acute Sprague-Dawley rat model of osteoarthritis at 30 mg/kg, po administered for 5 days and measured after 15 mins; format: ADME, organism-based; conditions: time 5 day, read-out: Ct
[19] = Drug concentration in plasma of monoiodoacetate-induced chronic Sprague-Dawley rat model of osteoarthritis at 0.3 mg/kg, po administered twice for 1 day; format: ADME, organism-based
[20] = Drug concentration in plasma of monoiodoacetate-induced chronic Sprague-Dawley rat model of osteoarthritis at 1 mg/kg, po administered twice for 1 day; format: ADME, organism-based
[21] = Drug concentration in plasma of monoiodoacetate-induced chronic Sprague-Dawley rat model of osteoarthritis at 3 mg/kg, po administered twice for 1 day; format: ADME, organism-based
[22] = Drug concentration in plasma of monoiodoacetate-induced chronic Sprague-Dawley rat model of osteoarthritis at 10 mg/kg, po administered twice for 1 day; format: ADME, organism-based
[23] = Drug concentration in plasma of monoiodoacetate-induced chronic Sprague-Dawley rat model of osteoarthritis at 0.3 mg/kg, po administered twice daily for 5 days; format: ADME, organism-based; conditions: time 5 day
[24] = Drug concentration in plasma of monoiodoacetate-induced chronic Sprague-Dawley rat model of osteoarthritis at 1 mg/kg, po administered twice daily for 5 days; format: ADME, organism-based; conditions: time 5 day
[25] = Drug concentration in plasma of monoiodoacetate-induced chronic Sprague-Dawley rat model of osteoarthritis at 3 mg/kg, po administered twice daily for 5 days; format: ADME, organism-based; conditions: time 5 day
[26] = Drug concentration in plasma of monoiodoacetate-induced chronic Sprague-Dawley rat model of osteoarthritis at 10 mg/kg, po administered twice daily for 5 days; format: ADME, organism-based; conditions: time 5 day
[27] = Drug concentration in brain of monoiodoacetate-induced chronic Sprague-Dawley rat model of osteoarthritis at 0.3 mg/kg, po administered twice daily for 5 days; format: ADME, organism-based; conditions: time 5 day, read-out: Ct
[28] = Drug concentration in brain of monoiodoacetate-induced chronic Sprague-Dawley rat model of osteoarthritis at 1 mg/kg, po administered twice daily for 5 days; format: ADME, organism-based; conditions: time 5 day, read-out: Ct
[29] = Drug concentration in brain of monoiodoacetate-induced chronic Sprague-Dawley rat model of osteoarthritis at 3 mg/kg, po administered twice daily for 5 days; format: ADME, organism-based; conditions: time 5 day, read-out: Ct
[30] = Drug concentration in brain of monoiodoacetate-induced chronic Sprague-Dawley rat model of osteoarthritis at 10 mg/kg, po administered twice daily for 5 days; format: ADME, organism-based; conditions: time 5 day, read-out: Ct
[31] = Cardiotoxicity in anesthetized rat CV model assessed as effect on PR interval upto 31 uM by ECG analysis; format: toxicity
[32] = Cardiotoxicity in anesthetized rat CV model assessed as effect on QRS complex upto 31 uM by ECG analysis; format: toxicity
[33] = Cardiotoxicity in conscious dog CV model assessed as effect on PR interval upto 47 uM by ECG analysis; format: toxicity, Canis lupus familiaris
[34] = Cardiotoxicity in conscious dog CV model assessed as effect on QRS complex upto 47 uM by ECG analysis; format: toxicity, Canis lupus familiaris
[35] = Drug exposure in plasma of rat; format: ADME; conditions: in vivo
[36] = Effect on locomotor activity in rat by locomotor assay; format: toxicity
[37] = Effect on locomotor activity in rat by rotorod test; format: toxicity
[38] = biological target: T1, Sodium channel protein type 9 subunit alpha (Homo sapiens, UniProt Q15858); test: Inhibition of recombinant human Nav 1.7 expressed in HEK293F cells at […] holding potential by manual voltage clamp electrophysiology method; format: cell-based
[39] = biological target: T1, Sodium channel protein type 9 subunit alpha
[40] = biological target: Sodium channel protein type 5 subunit alpha (Homo sapiens, UniProt Q14524)
[41] = rat, in vivo, po
Rattus norvegicus [42] = species: Rattus norvegicus; test: cells; conditions: Sprague-Dawley
in vivo [43] = conditions: Sprague-Dawley, rat, iv
in vivo [44] = conditions: Sprague-Dawley, rat, po
in vivo [45] = conditions: Sprague-Dawley, rat, po; remark: listed apart in the source
physchem = conditions: phosphate buffer
Rattus norvegicus [46] = species: Rattus norvegicus; test: animal or person; conditions: Sprague-Dawley
Rattus norvegicus [47] = species: Rattus norvegicus; test: animal or person; conditions: Sprague-Dawley; remark: listed apart in the source
Rattus norvegicus [48] = test: Antinociceptive activity in monoiodoacetate-induced Sprague-Dawley rat model of osteoarthritis at 3 mg/kg, po administered for 5 days and measured after 180 mins by grip force testing relative to control; format: functional; conditions: time 5 day
Rattus norvegicus [49] = test: Antinociceptive activity in monoiodoacetate-induced Sprague-Dawley rat model of osteoarthritis at 10 mg/kg, po administered for 5 days and measured after 180 mins by grip force testing relative to control; format: functional; conditions: time 5 day
Rattus norvegicus [50] = test: Antinociceptive activity in monoiodoacetate-induced Sprague-Dawley rat model of osteoarthritis at 30 mg/kg, po administered for 5 days and measured after 180 mins by grip force testing relative to control; format: functional; conditions: time 5 day
[51] = biological target: Voltage-gated inwardly rectifying potassium channel KCNH2 (Homo sapiens, UniProt Q12809);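 also: hERG channel blockade measured by electrophysiology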
in vitro = conditions: PAMPA
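For solubility in this document: determined using a high-throughput solubility method.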

T1 sequence (Q15858 whole entry, looked up): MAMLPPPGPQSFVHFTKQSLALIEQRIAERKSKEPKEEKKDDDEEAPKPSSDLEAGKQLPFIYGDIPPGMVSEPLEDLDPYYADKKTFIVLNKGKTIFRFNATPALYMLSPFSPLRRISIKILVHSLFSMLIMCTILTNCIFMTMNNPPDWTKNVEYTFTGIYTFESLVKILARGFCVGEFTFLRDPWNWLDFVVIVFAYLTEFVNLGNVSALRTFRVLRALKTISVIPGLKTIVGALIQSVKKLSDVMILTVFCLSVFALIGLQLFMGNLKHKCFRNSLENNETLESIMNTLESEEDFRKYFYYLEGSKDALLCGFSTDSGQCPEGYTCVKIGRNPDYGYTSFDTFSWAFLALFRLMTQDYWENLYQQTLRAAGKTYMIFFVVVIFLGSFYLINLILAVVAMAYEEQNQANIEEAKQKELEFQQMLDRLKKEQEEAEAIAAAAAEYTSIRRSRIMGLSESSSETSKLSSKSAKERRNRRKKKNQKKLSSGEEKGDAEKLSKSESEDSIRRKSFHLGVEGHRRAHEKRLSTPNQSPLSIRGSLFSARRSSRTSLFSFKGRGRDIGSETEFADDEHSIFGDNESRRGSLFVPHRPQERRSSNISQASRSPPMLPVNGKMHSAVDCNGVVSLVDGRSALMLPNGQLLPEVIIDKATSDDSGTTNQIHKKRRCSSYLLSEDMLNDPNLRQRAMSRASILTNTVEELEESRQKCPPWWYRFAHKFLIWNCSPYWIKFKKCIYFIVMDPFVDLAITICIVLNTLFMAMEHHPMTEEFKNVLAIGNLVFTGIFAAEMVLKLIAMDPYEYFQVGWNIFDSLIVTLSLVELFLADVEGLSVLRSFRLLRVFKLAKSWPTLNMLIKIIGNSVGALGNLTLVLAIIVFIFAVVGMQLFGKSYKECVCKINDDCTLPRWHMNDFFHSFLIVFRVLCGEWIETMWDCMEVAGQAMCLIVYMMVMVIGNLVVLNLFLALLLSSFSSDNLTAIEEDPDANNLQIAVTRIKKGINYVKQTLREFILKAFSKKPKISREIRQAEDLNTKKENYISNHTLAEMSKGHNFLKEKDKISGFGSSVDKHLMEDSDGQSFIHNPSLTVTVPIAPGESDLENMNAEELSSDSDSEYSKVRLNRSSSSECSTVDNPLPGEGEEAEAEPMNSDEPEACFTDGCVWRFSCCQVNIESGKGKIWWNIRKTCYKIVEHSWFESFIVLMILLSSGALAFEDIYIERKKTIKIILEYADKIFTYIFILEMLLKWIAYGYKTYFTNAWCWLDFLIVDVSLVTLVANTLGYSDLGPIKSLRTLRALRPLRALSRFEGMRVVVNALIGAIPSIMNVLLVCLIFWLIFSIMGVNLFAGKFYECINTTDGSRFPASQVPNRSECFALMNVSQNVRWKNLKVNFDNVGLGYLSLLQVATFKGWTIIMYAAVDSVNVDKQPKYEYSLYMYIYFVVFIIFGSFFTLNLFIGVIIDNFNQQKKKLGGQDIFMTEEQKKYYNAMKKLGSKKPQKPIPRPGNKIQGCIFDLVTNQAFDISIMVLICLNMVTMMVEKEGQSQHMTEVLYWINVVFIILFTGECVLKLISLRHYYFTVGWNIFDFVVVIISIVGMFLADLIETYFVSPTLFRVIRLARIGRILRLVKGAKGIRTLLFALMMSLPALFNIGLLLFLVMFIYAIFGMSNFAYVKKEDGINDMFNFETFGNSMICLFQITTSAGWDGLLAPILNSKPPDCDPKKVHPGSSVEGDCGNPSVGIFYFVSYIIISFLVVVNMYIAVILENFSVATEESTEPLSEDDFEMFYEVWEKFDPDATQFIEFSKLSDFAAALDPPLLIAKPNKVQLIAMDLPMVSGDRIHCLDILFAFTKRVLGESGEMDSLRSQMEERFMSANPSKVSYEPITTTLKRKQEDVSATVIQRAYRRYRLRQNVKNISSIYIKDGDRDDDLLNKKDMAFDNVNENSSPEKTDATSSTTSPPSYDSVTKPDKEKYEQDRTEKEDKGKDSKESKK
Chain of Sodium channel protein type 5 subunit alpha (Q14524 whole entry): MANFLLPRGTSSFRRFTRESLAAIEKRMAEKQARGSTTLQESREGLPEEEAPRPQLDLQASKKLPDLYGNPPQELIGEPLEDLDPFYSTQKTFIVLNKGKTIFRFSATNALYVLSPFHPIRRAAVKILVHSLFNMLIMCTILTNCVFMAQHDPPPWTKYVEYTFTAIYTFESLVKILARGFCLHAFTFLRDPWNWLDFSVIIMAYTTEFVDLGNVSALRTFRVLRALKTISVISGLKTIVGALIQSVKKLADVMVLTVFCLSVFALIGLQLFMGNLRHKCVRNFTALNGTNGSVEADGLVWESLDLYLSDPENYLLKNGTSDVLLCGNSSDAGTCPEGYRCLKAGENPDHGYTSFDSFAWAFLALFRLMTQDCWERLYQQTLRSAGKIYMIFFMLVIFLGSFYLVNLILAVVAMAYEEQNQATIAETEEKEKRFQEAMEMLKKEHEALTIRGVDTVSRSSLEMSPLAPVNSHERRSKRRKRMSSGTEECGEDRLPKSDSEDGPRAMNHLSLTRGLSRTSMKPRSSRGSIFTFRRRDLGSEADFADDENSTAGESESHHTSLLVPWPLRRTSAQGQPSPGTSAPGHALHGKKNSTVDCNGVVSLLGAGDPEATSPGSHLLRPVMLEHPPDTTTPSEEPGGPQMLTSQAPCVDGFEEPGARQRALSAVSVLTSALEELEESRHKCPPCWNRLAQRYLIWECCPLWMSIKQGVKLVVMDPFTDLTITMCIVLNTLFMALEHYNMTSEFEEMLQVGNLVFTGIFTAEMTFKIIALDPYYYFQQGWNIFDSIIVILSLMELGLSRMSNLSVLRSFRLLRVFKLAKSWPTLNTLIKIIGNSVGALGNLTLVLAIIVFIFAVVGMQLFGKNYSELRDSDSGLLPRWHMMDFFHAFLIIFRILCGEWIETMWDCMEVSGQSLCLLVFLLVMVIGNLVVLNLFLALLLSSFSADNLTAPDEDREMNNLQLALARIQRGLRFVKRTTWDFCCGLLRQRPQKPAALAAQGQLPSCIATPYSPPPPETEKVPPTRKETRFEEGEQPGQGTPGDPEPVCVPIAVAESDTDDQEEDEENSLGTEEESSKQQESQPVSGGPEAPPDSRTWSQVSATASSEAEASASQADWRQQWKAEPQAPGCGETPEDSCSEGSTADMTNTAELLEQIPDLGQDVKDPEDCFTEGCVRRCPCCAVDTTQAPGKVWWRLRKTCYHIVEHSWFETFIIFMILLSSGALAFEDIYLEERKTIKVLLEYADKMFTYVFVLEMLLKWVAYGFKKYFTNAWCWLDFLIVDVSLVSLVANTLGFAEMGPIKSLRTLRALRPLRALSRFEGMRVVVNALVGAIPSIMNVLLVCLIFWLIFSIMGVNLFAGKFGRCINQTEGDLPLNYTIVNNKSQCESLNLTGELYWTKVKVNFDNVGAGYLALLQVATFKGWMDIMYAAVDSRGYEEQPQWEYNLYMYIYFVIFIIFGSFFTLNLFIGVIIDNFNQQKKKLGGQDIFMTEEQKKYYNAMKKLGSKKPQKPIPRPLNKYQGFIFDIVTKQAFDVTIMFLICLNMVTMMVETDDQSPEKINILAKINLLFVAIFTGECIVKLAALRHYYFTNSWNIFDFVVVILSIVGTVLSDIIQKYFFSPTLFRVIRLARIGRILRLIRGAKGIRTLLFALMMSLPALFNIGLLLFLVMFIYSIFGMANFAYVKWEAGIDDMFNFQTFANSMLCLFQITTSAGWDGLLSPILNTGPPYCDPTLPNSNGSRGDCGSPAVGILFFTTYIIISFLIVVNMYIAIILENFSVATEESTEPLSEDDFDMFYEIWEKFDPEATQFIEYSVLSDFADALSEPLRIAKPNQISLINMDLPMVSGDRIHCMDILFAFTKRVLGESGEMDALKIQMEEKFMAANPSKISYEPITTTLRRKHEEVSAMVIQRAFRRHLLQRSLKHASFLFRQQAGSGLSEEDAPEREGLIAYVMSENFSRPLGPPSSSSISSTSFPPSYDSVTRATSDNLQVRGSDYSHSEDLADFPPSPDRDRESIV
Chain of Voltage-gated inwardly rectifying potassium channel KCNH2 (Q12809 whole entry): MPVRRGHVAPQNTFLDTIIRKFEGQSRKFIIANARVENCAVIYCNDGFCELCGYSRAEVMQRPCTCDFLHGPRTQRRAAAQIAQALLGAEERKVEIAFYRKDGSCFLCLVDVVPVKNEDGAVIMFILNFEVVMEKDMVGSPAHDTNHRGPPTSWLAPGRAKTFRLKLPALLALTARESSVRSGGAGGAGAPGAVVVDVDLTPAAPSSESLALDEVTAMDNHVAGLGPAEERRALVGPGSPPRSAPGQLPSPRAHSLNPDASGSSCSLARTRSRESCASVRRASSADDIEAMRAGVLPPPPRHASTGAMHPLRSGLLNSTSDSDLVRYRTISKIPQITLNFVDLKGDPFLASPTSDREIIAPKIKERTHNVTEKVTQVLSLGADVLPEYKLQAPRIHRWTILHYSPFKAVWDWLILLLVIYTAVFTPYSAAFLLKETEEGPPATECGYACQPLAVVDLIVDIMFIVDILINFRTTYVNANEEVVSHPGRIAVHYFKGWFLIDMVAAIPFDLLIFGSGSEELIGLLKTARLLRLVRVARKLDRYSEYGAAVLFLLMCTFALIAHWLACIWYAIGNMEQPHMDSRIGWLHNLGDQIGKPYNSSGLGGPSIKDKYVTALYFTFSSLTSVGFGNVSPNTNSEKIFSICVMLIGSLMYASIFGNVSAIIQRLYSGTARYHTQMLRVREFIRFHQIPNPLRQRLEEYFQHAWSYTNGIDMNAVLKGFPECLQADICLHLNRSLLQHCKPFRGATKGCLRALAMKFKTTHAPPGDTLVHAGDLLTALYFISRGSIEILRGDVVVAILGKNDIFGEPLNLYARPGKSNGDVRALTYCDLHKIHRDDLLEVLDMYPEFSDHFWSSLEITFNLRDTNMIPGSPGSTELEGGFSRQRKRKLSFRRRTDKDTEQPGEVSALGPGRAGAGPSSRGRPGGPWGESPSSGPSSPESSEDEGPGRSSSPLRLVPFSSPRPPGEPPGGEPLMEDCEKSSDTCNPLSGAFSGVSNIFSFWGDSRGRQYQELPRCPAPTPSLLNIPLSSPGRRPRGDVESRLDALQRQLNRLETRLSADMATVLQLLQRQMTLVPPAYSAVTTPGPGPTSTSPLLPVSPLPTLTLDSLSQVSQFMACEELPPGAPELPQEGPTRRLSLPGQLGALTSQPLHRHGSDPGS

## O=C(c1ccc2cc(Oc3ccc(C(F)(F)F)cn3)ccc2n1)N1CC[C@@H](F)C1
[1]
  concentration at 120 h: 10000 ng/mL
[2]
  Kp uu: 0.29
[3]
  IC50: 2.86 µM
[4]
  fraction unbound: 0.05
[5]
  fraction unbound: 0.015
[6]
  half-life: 13.4 h
[7]
  Vdss: 4.1 L/kg
[8]
  clearance: 5 mL/min/kg
[9]
  bioavailability: 85%
[10]
  half-life: 7.6 h
[11]
  Vdss: 3.6 L/kg
[12]
  clearance: 5 mL/min/kg
[13]
  bioavailability: 110%
[14]
  concentration at 120 h: 1410 ng/mL
[15]
  concentration at 120 h: 5180 ng/mL
[16]
  concentration at 120 h: 1530 ng/mL
[17]
  concentration at 120 h: 5240 ng/mL
[18]
  concentration at 120 h: 10800 ng/mL
[19]
  concentration at 24 h: 70 ng/mL
[20]
  concentration at 24 h: 270 ng/mL
[21]
  concentration at 24 h: 750 ng/mL
[22]
  concentration at 24 h: 3440 ng/mL
[23]
  concentration at 120 h: 140 ng/mL
[24]
  concentration at 120 h: 480 ng/mL
[25]
  concentration at 120 h: 1480 ng/mL
[26]
  concentration at 120 h: 5480 ng/mL
[27]
  concentration at 120 h: 110 ng/mL
[28]
  concentration at 120 h: 260 ng/mL
[29]
  concentration at 120 h: 1140 ng/mL
[30]
  concentration at 120 h: 4230 ng/mL
[31]
  Activity: Non-Toxic
[32]
  Activity: Non-Toxic
[33]
  Activity: Non-Toxic
[34]
  Activity: Non-Toxic
[35]
  Cp: 11200 ng/mL
[36]
  Activity: Non-Toxic
[37]
  Activity: Non-Toxic
[38]
  IC50: 1.1 µM
[39]
  IC50: 3.14 µM
[40]
  IC50: 33 µM
[41]
  Vdss: 4.06 L/kg
Rattus norvegicus [42]
  EC50: 4 µg/mL (≈ 9.87 µM)
In vivo [43]
  clearance: 7.17 mL/min/kg
In vivo [44]
  half-life: 5.44 h
In vivo [45]
  bioavailability: 80%
physchem
  solubility: 84 µM (≈ 34 µg/mL)
Rattus norvegicus [46]
  EC50: 1.4 µg/mL (≈ 3.45 µM)
Rattus norvegicus [47]
  EC50: 0.24 µg/mL (≈ 0.592 µM)

## CS(=O)(=O)CCNC(=O)c1ccc2cc(Oc3ccc(C(F)(F)F)cn3)ccc2n1
Rattus norvegicus [48]
  Activity: 35%
Rattus norvegicus [49]
  Activity: 68%
Rattus norvegicus [50]
  Activity: 63%
[51]
  IC50: 30 µM
In vivo [45]
  bioavailability: 80.4%
physchem
  solubility: 29 µM (≈ 12.7 µg/mL)
In vitro
  Papp: 18 ×10⁻⁶ cm/s
